Results taken from patent US11203633B2, “Polynucleotides encoding antibodies or antigen binding fragments thereof that bind pseudomonas perv” (priority 2011, dated 2021).

Legend:
[1] = tested on: P. aeruginosa strain 6077 (O11-cytotoxic); test: Corneal infection (ocular keratitis) model in mice; type: in vivo, Pseudomonas aeruginosa; details: C3H/HeN mice; IP, 16 hours prior to infection with 6077 1×10^6 CFU; graded at 48 h; FIG. 8H
Description: (§1) Antibodies or PBS were administered 24 hours before infection in each model. P. aeruginosa acute pneumonia, keratitis, and thermal injury infection models were performed as described (DiGiandomenico, A., et al., Proc Natl Acad Sci USA 104, 4624-4629 (2007)), with modifications. In the acute pneumonia model, BALB/c mice (The Jackson Laboratory) were infected with P. aeruginosa strains suspended in a 0.05 ml inoculum. In the thermal injury model, CF-1 mice (Charles River) received a 10% total body surface area burn with a metal brand heated to 92° C. for 10 seconds. Animals were infected subcutaneously with P. aeruginosa strain 6077 at the indicated dose. For organ burden experiments, acute pneumonia was induced in mice followed by harvesting of lungs, spleens, and kidneys 24 hours post-infection for determination of CFU.
Cam-003 and WapR-004 efficacy was next evaluated in a P. aeruginosa corneal infection model which emphasizes the pathogens ability to attach and colonize damaged tissue. […] FIG. 8 (H): The activity of anti-Psl and anti-PcrV monoclonal antibodies V2L2 was tested in a P. aeruginosa mouse ocular keratitis model. […]

[2] = tested on: P. aeruginosa strains (PAO1, 33356, 6294, 6077, 6206, PA103A); test: Acute pneumonia model in mice, survival; type: in vivo, Pseudomonas aeruginosa; details: for protection from challenge: 45 and 15 mg/kg; for survival compared to controls: 45, 15, 5 mg/kg 24 hours before infection
Description: as §1
The in vivo effect of administration of an anti-PcrV antibodies was studied in mice using an acute pneumonia model. Groups of mice were treated with either increasing concentrations of the V2L2 antibody, a positive control anti-PcrV antibody (mAb166), or a negative control (R347), as shown in FIG. 13 (A-B). Groups of mice were also treated with either increasing concentrations of the V2L2 antibody, the PcrV antibody PcrV-02, or a negative control (R347), as shown in FIG. 13 (C-D). Twenty-four hours after treatment, all mice were infected with 5×10^7 CFU (C) Pseudomonas aeruginosa 6294 (06) or (D) PA103A (O11).
Groups of mice were treated with either increasing concentrations of the 11A6, 3G5 or V2L7, the same concentrations of 29D2, 1F3, 1E6, V2L2, LE10, SH3, 4A8, 2H3, or 21F1, increasing concentrations of the 29D2, increasing concentrations of the V2L2, the PcrV antibody PcrV-02, or a negative control (R347), as shown in FIG. 13 (E-H). Mice were injected intraperitoneally (IP) with mAbs 24 hours prior to intranasal infection with Pseudomonas strain 6077 (1×10^6 CFU/animal).

[3] = tested on: P. aeruginosa strains 6077, 6206, 6294; test: Thermal injury model in mice, survival; type: in vivo, Pseudomonas aeruginosa; details: 6077 2×10^5 CFU, FIG. 8E
Description: as §1
Survival effect of the Bs4-GLO bispecific antibody was evaluated in a P. aeruginosa thermal injury model against different P. aeruginosa strains. […] Animals were treated with Bs4-GLO or […] to induction of thermal injury and subcutaneous infection with P. aeruginosa strain (A) 6077 (O11-ExoU^+) or (B) 6206 (O11-ExoU^+) or (C) 6294 (06) directly under the wound.
(A) Animals were treated with Bs4-GLO or R347 (A) 4h hours or (B) 12 hours after induction of thermal injury and subcutaneous infection with P. aeruginosa strain 6077 (O11-ExoU^+) directly under the wound.

[4] = tested on: luminescent P. aeruginosa serogroup 05 strain (PAO1.lux); test: Opsonophagocytic killing (OPK) assay, PAO1.lux; type: cell-based, Pseudomonas aeruginosa
Description: This example describes the evaluation of prioritized human IgG1 antibodies to promote OPK of P. aeruginosa. […] OPK assays were performed as described in (DiGiandomenico, A., et al., Infect Immun 72, 7012-7021 (2004)), with modifications. Briefly, assays were performed in 96-well plates using 0.025 ml of each OPK component; P. aeruginosa strains; diluted baby rabbit serum; differentiated HL-60 cells; and monoclonal antibody. In some OPK assays, luminescent P. aeruginosa strains, which were constructed as described (Choi, K. H., et al., Nat Methods 2, 443-448 (2005)), were used. Luminescent OPK assays were performed as described above but with determination of relative luciferase units (RLUs) using a Perkin Elmer ENVISION Multilabel plate reader (Perkin Elmer).

## Cam-003: anti-Psl human IgG1 monoclonal antibody; VH SEQ ID NO:1, VL SEQ ID NO:2
[1]
  corneal pathology and CFU in total eye homogenates vs R347: significantly less pathology and reduced bacterial colony forming units (CFU) in total eye homogenates
[2]; 6077 1×10^6 CFU, 5 mg/kg, FIG. 6D
  survival vs. R347, Log-rank test P: 0.0001
[2]; 6294 7×10^6 CFU, 5 mg/kg, FIG. 6C
  survival vs. R347, Log-rank test P: 0.0212
[2]; 6294 7×10^6 CFU, 15 mg/kg, FIG. 6C
  survival vs. R347, Log-rank test P: 0.0019
[2]; 6294 7×10^6 CFU, 45 mg/kg, FIG. 6C
  survival vs. R347, Log-rank test P: 0.0007
[2]; 33356 3×10^7 CFU, 5 mg/kg, FIG. 6B
  survival vs. R347, Log-rank test P: 0.0373
[2]; 33356 3×10^7 CFU, 15 mg/kg, FIG. 6B
  survival vs. R347, Log-rank test P: 0.0012
[2]; 33356 3×10^7 CFU, 45 mg/kg, FIG. 6B
  survival vs. R347, Log-rank test P: 0.0012
[2]; PAO1 1.6×10^7 CFU, 5 mg/kg, FIG. 6A
  survival vs. R347, Log-rank test P: 0.0033
[2]; PAO1 1.6×10^7 CFU, 15 mg/kg, FIG. 6A
  survival vs. R347, Log-rank test P: 0.0003
[2]; cytotoxic strain 6077, FIG. 6D
  protection from challenge: complete protection
[2]; strain 6077, 5 mg/kg, FIG. 6D
  survival: 90%
[2]; strain 6294, FIG. 6C
  survival compared to controls: significant concentration-dependent survival
[2]; strain 33356, 5 mg/kg, FIG. 6B
  survival: 80%
[2]; strain 33356, FIG. 6B
  protection from challenge: complete protection
[2]; strain PAO1, FIG. 6A
  survival compared to controls: significant concentration-dependent survival
[3]; 5 mg/kg
  survival R347 vs. Cam-003, log-rank P: 0.0017
[3]; 15 mg/kg
  survival R347 vs. Cam-003, log-rank P: 0.0094
[3]; CF-1 mice
  protection compared to the antibody-treated control: significant protection at 15 and 5 mg/kg
[4]; FIG. 9A, unit inferred
  OPK EC50: 0.06 µg/mL
[4]; purified human IgG1 mAbs from phage panning, FIG. 2A
  OPK activity (killing of PAO1.lux): superior OPK activity
